From patent publication US12030835B2, “Substituted amide compounds useful as farnesoid X receptor modulators” (BRISTOL-MYERS SQUIBB COMPANY, priority 2019, dated 2024) come the findings set out here.

pEC50: −log10 of the molar value.

For the assay, the target named is T1, human FXR (Homo sapiens, UniProt Q96RI1).
T1 construct: expressed in transfected cells
T1 sequence (Q96RI1 262-486 limits assumed): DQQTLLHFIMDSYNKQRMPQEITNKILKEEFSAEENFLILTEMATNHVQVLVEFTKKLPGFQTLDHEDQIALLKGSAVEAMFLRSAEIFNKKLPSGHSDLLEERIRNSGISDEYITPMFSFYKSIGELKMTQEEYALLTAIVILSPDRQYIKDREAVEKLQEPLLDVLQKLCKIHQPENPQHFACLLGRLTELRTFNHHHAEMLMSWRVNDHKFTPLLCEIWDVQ
Put plainly: transient human FXR/Gal4-luciferase reporter assay. It is filed as cell-based. Conditions: Gal4-hFXR (ligand binding domain) fusion transiently transfected in HEK293 Gal4-luciferase reporter cells; overnight incubation; response as percentage of 8 μM GW-4064 control. The protocol: A Gal4-hFXR fusion construct reporter system was used as the primary assay to characterize compound activity. A construct including 5 copies of the Gal4 promoter response element upstream of a firefly luciferase reporter cDNA was stably expressed in HEK293 cells. This reporter cell line was maintained in Dulbecco's Modified Eagle's medium (DMEM; Gibco) supplemented with 1% penicillin-streptomycin (P/S) solution, 500 μg/ml Zeocin and 10% charcoal/dextran-treated fetal bovine serum (cs-FBS) at 37° C. in a humidified 5% CO2 atmosphere. Another plasmid was constructed in which the human cytomegalovirus promoter in the pcDNA3.1 vector directs the expression of the cDNA encoding a fusion protein comprised of the DNA binding domain from the Gal4 transcription factor fused to the ligand binding domain from human FXR.
The day prior to transfection, the reporter cells in culture are detached from the plate with trypsin and plated into a T75 flask at a sufficient density to achieve approximately 90% confluence the next morning. The transfection reagents are prepared by separately diluting 25 μg of the pcDNA3.1-Gal4-FXR plasmid into 1.87 mL of Opti-MEM (Thermo-Fisher), and 40 μL of Lipofectamine 2000 (Thermo-Fisher) into 1.87 mL of Opti-MEM, and then adding the diluted DNA solution into the diluted Lipofectamine 2000 solution and incubating at room temperature for 15-20 minutes. The mixture is further diluted with 10 ml of a solution comprised of DMEM, 10% cs-FBS, and 1% P/S immediately prior to transferring to the cells. The maintenance culture media is aspirated from the cells and the final transfection mixture is added before the cells are incubated overnight at 37° C. in a humidified 5% CO2 atmosphere. This protocol can be scaled up, and the transiently transfected cells can be cryopreserved in an assay-ready format.
For compound testing, 100 nL of the compounds (serial dilutions in DMSO) are dispensed with an Echo acoustic dispenser (Labcyte) into the wells of a Corning/Costar clear bottom 384-well white plate. The transfected cells are harvested, counted, and diluted such that 10-25,000 cells in 25 μL are plated into each well of the 384-well compound assay plate. The compound-treated cells are incubated overnight at 37° C. in a humidified 5% CO2 atmosphere. The next morning 25 μL of Steady-Glo (Promega) are added to each well of the plate, the mixture is incubated for 15 min. with shaking, and luminescence is measured on an Envision (Perkin Elmer) plate reader.

Take `CC(C)(O)C#Cc1cccc(N(CC23CCC(c4noc(C(C)(F)F)n4)(CC2)CC3)C(=O)C23CC(F)(C2)C3)c1` [Example 49, N-((4-(5-(1,1-difluoroethyl)-1,2,4-oxadiazol-3-yl)bicyclo[2.2.2]octan-1-yl)methyl)-3-fluoro-N-(3-(3-hydroxy-3-methylbut-1-yn-1-yl)phenyl)bicyclo[1.1.1]pentane-1-carboxamide]: the pEC50 was 7.41.
